Test results as given in paper PMC8875074, “Development of Bactericidal Peptides against Multidrug-Resistant Acinetobacter baumannii with Enhanced Stability and Low Toxicity” (International Journal of Molecular Sciences, 2022).
In brackets after ≈: the same amount, converted by molar mass. Like-named read-outs stand apart in the source and are kept apart here.

What was measured:
[1] = system: A. baumannii; assay: Peptide sensitivity to temperature (MIC/MBC after heating); type: cell-based, Acinetobacter baumannii
Protocol: (§1) Bacterial cells Acinetobacter baumannii 10591 and 14B0091 were obtained from BCRC Taiwan. All the MDR strains were obtained from the hospital as gifts. The antimicrobial assay was performed as per the standard protocol; 50 µL of 10^6 CFU/mL of mid-log phase bacterial suspension was treated with 50 µL of candidate peptide and meropenem (Sigma: PHR1772) incubated at 37 °C for 960~1200 min. The clear wells corresponding to the lowest concentrations are reported as the minimum inhibitory concentration (MIC). Suspensions from the clear wells were plated on Mueller–Hinton agar (MHA) plates and incubated at 37 °C overnight. The lowest concentration corresponding to no growth was recorded as the minimum bactericidal concentration (MBC). To detect the effect of human serum (H3667, Sigma Aldrich, St. Louis, MO, USA) on the peptides, the media was replaced with 50% human serum-containing media. Similarly, to detect the effect of lung surfactant (SURVANTA®, beractant, AbbVie Inc., Lake Bluff, IL, USA (25 mg/mL)) on the antimicrobial activity of the peptide, the normal media was replaced with 5% lung surfactant-containing media. To analyse the bacterial killing kinetics, after the addition of the peptide to the bacterial suspension, 10 µL of broth was diluted 1000 times, plated at 30 min intervals, and allowed to incubate for 90 min. The bacterial load is expressed as CFU/mL as a function of time.
Here, 50 µL of 10^6 CFU/mL bacterial cells were treated with peptide previously incubated at 40, 60, 80, and 100 °C for 1 h. The peptide activity was reported as per the standard MIC and MBC protocols.

[2] = system: A. baumannii (10591); assay: Induced resistance (serial passage) assay; type: cell-based, Acinetobacter baumannii; details: 15 cycles, from subinhibitory wells
Protocol: A total of 50 µL of 10^6 CFU/mL bacterial cells were treated with different concentrations of peptide. Bacterial cells from subinhibitory wells were subcultured by passaging for 15 cycles, followed by testing their MIC values. The fold change in MIC was reported in comparison with starting MIC values.

[3] = system: MDR A. baumannii 1607; assay: MIC/MBC antimicrobial assay; type: cell-based; details: Acinetobacter baumannii; MDR strain 1607; normal media; triplicate, two independent experiments
Protocol: as §1

[4] = system: MDR A. baumannii 2962; assay: MIC/MBC antimicrobial assay; type: cell-based; details: Acinetobacter baumannii; MDR strain 2962; normal media; triplicate, two independent experiments
Protocol: as §1

[5] = system: MDR A. baumannii 2997; assay: MIC/MBC antimicrobial assay; type: cell-based; details: Acinetobacter baumannii; MDR strain 2997; normal media; triplicate, two independent experiments
Protocol: as §1

[6] = system: MDR A. baumannii 921; assay: MIC/MBC antimicrobial assay; type: cell-based; details: Acinetobacter baumannii; MDR strain 921; normal media; triplicate, two independent experiments
Protocol: as §1

[7] = system: MDR A. baumannii 2998; assay: MIC/MBC antimicrobial assay; type: cell-based; details: Acinetobacter baumannii; MDR strain 2998; normal media; triplicate, two independent experiments
Protocol: as §1

[8] = system: MDR A. baumannii 1033; assay: MIC/MBC antimicrobial assay; type: cell-based; details: Acinetobacter baumannii; MDR strain 1033; normal media; triplicate, two independent experiments
Protocol: as §1

[9] = system: MDR A. baumannii 1019; assay: MIC/MBC antimicrobial assay; type: cell-based; details: Acinetobacter baumannii; MDR strain 1019; normal media; triplicate, two independent experiments
Protocol: as §1

[10] = system: MDR A. baumannii 2982; assay: MIC/MBC antimicrobial assay; type: cell-based; details: Acinetobacter baumannii; MDR strain 2982; normal media; triplicate, two independent experiments
Protocol: as §1

[11] = system: MDR A. baumannii 1702; assay: MIC/MBC antimicrobial assay; type: cell-based; details: Acinetobacter baumannii; MDR strain 1702; normal media; triplicate, two independent experiments
Protocol: as §1

[12] = system: MDR A. baumannii 2088; assay: MIC/MBC antimicrobial assay; type: cell-based; details: Acinetobacter baumannii; MDR strain 2088; normal media; triplicate, two independent experiments
Protocol: as §1

[13] = system: MDR A. baumannii 3618; assay: MIC/MBC antimicrobial assay; type: cell-based; details: Acinetobacter baumannii; MDR strain 3618; normal media; triplicate, two independent experiments
Protocol: as §1

[14] = system: A. baumannii 10591; assay: Biofilm rupture assay; type: cell-based, Acinetobacter baumannii; details: at the lowest concentration (25 µg/mL)
Protocol: For the biofilm inhibition assay, 106 bacterial cells were treated with peptide at various concentrations in MHB media containing 0.2% glucose for 24 h at 37 °C in 96-well plates. The wells were then washed with PBS, treated with 100% methanol for 15 min, and the washes were discarded. Crystal violet solution (0.02%) was added to the dry plates and incubated for 30 min. The wells were then washed and treated with 33% acetic acid, followed by detection at 595 nm. For the biofilm rupture assay, 106 bacterial cells were grown overnight. The residual liquid was discarded, followed by washing with PBS. Next, 100 µL of peptide at different concentrations was added as estimated according to the biofilm inhibition assay.

[15] = system: A. baumannii 10591; assay: MIC/MBC antimicrobial assay; type: cell-based, Acinetobacter baumannii; details: for MBC: A. baumannii 10591 wild strain, triplicate, two independent experiments
Protocol: as §1

[16] = system: MDR A. baumannii 14B0091; assay: MIC/MBC antimicrobial assay; type: cell-based, Acinetobacter baumannii; details: MDR strain 14B0091, triplicate, two independent experiments
Protocol: as §1

[17] = system: MDR A. baumannii 1607; assay: Fractional inhibitory concentration (FIC) index assay; type: cell-based, Acinetobacter baumannii; details: strain 1607
Protocol: (§2) A 2-fold dilution of peptide in 50 µL of media was performed along the vertical axis of a 96-well plate. Similarly, 50 µL of the next drug was diluted 2-fold along the horizontal axis. Next, 50 µL of […] was added, and the standard MIC protocol was performed. The FIC index was calculated according to the following formula:FICI = FIC A + FIC B where FIC A is MIC A & B combined/MIC A and FIC B is MIC A & B combined/[…].

[18] = system: MDR A. baumannii 2962; assay: as above; type: cell-based, Acinetobacter baumannii; details: strain 2962
Protocol: as §2

[19] = system: MDR A. baumannii 2997; assay: as above; type: cell-based, Acinetobacter baumannii; details: strain 2997
Protocol: as §2

[20] = system: MDR A. baumannii 921; assay: as above; type: cell-based, Acinetobacter baumannii; details: strain 921
Protocol: as §2

[21] = system: MDR A. baumannii 2998; assay: as above; type: cell-based, Acinetobacter baumannii; details: strain 2998
Protocol: as §2

[22] = system: MDR A. baumannii 1033; assay: as above; type: cell-based, Acinetobacter baumannii; details: strain 1033
Protocol: as §2

[23] = system: MDR A. baumannii 1019; assay: as above; type: cell-based, Acinetobacter baumannii; details: strain 1019
Protocol: as §2

[24] = system: MDR A. baumannii 14B001; assay: as above; type: cell-based, Acinetobacter baumannii; details: strain 14B001
Protocol: as §2

[25] = system: MDR A. baumannii 2982; assay: as above; type: cell-based, Acinetobacter baumannii; details: strain 2982
Protocol: as §2

[26] = system: MDR A. baumannii 1702; assay: as above; type: cell-based, Acinetobacter baumannii; details: strain 1702
Protocol: as §2

[27] = system: MDR A. baumannii 2088; assay: as above; type: cell-based, Acinetobacter baumannii; details: strain 2088
Protocol: as §2

[28] = system: MDR A. baumannii 3618; assay: as above; type: cell-based, Acinetobacter baumannii; details: strain 3618
Protocol: as §2

[29] = cited from earlier work
Excerpt: A pair of test peptides, TP2-5 and TP2-6, were selected from a previous design based on tilapia piscidin 2 (TP2). […] Both TP2-5 and TP2-6 are nonhaemolytic and noncytotoxic an ...

[30] = Acinetobacter baumannii, media containing 50% human serum, read-out: MBC
[31] = Acinetobacter baumannii, drug alone, two experiments in triplicate

## C[C@@H](O)[C@H]1C(=O)N2C(C(=O)O)=C(S[C@@H]3CN[C@H](C(=O)N(C)C)C3)[C@H](C)[C@H]12 [Meropenem, meropenem]
[1]; Acinetobacter baumannii
  MIC: 1.56 µg/mL (≈ 4.07 µM)
[1]; Acinetobacter baumannii, agent incubated at 40 °C for 1 h prior to the assay, triplicate, two experiments
  MBC: 1.56 µg/mL (≈ 4.07 µM)
[1]; Acinetobacter baumannii, agent incubated at 60 °C for 1 h prior to the assay, triplicate, two experiments
  MBC: 1.56 µg/mL (≈ 4.07 µM)
[1]; Acinetobacter baumannii, agent incubated at 80 °C for 1 h prior to the assay, triplicate, two experiments
  MBC: 3.12 µg/mL (≈ 8.15 µM)
[1]; Acinetobacter baumannii, agent incubated at 80 °C for 1 h prior to the assay, triplicate, two experiments, read-out: MIC
  MIC: 3.12 µg/mL (≈ 8.15 µM)
[1]; Acinetobacter baumannii, agent incubated at 100 °C for 1 h prior to the assay, triplicate, two experiments
  MBC: 50 µg/mL (≈ 130 µM)
[1]; Acinetobacter baumannii, agent incubated at 100 °C for 1 h prior to the assay, triplicate, two experiments, read-out: MIC
  MIC: 50 µg/mL (≈ 130 µM)
[1]; agent incubated at 60 °C for 1 h prior to the assay, triplicate, two experiments
  MIC: 1.56 µg/mL (≈ 4.07 µM)
[2]
  increase in MIC versus the initial MIC value (fold): up to 16 fold
[3]
  MBC: 50 µg/mL (≈ 130 µM)
  MIC: 50 µg/mL (≈ 130 µM)
[4]
  MBC: 50 µg/mL (≈ 130 µM)
  MIC: 50 µg/mL (≈ 130 µM)
[5]
  MBC: 50 to 100 µg/mL (≈ 130 to 261 µM)
  MIC: 50 to 100 µg/mL (≈ 130 to 261 µM)
[6]
  MBC: > 100 µg/mL
  MIC: 100 µg/mL (≈ 261 µM)
[7]
  MBC: > 100 µg/mL
  MIC: > 100 µg/mL
[8]
  MBC: 100 µg/mL (≈ 261 µM)
  MIC: 50 µg/mL (≈ 130 µM)
[9]
  MBC: 25 µg/mL (≈ 65.2 µM)
  MIC: 25 µg/mL (≈ 65.2 µM)
[10]
  MBC: > 100 µg/mL
  MIC: > 100 µg/mL
[11]
  MBC: 12.5 µg/mL (≈ 32.6 µM)
[12]
  MBC: > 100 µg/mL
  MIC: > 100 µg/mL
[13]
  MBC: 50 to 100 µg/mL (≈ 130 to 261 µM)
  MIC: 50 to 100 µg/mL (≈ 130 to 261 µM)
[14]
  biofilm rupture: nonsignificant biofilm rupture
[15]; media containing 5% lung surfactant
  MBC: 1.56 µg/mL (≈ 4.07 µM)
[15]; Acinetobacter baumannii, 10591
  MIC: 1.56 µg/mL (≈ 4.07 µM)
[15]; [30]
  MBC: 1.56 µg/mL (≈ 4.07 µM)
[16]; [30]
  MBC: > 100 µg/mL
[16]; Acinetobacter baumannii, media containing 50% human serum, read-out: MIC
  MIC: > 100 µg/mL
[16]; normal media
  MBC: >100 µg/mL
  MIC: >100 µg/mL
[17]; [31]
  MIC: 25 µg/mL
[17]; TP2-5 combined with meropenem
  MIC in Combination: 25 µg/mL
[17]; TP2-6 combined with meropenem
  MIC in Combination: 25 µg/mL
[18]; [31]
  MIC: 50 µg/mL
[18]; TP2-5 combined with meropenem
  MIC in Combination: 25 µg/mL
[18]; TP2-6 combined with meropenem
  MIC in Combination: 25 µg/mL
[19]; [31]
  MIC: 100 µg/mL
[19]; TP2-5 combined with meropenem
  MIC in Combination: 50 µg/mL
[19]; TP2-6 combined with meropenem, first printed pair of the cells (before the slash)
  MIC in Combination: 50 µg/mL
[19]; TP2-6 combined with meropenem, second printed pair of the cells (after the slash)
  MIC in Combination: 25 µg/mL
[20]; [31]
  MIC: 100 µg/mL
[20]; TP2-5 combined with meropenem
  MIC in Combination: 100 µg/mL
[20]; TP2-6 combined with meropenem
  MIC in Combination: 50 µg/mL
[21]; [31]
  MIC: 200 µg/mL
[21]; TP2-5 combined with meropenem
  MIC in Combination: 200 µg/mL
[21]; TP2-6 combined with meropenem
  MIC in Combination: 100 µg/mL
[22]; [31]
  MIC: 50 µg/mL
[22]; TP2-5 combined with meropenem
  MIC in Combination: 50 µg/mL
[22]; TP2-6 combined with meropenem
  MIC in Combination: 25 µg/mL
[23]; [31]
  MIC: 25 µg/mL
[23]; TP2-5 combined with meropenem
  MIC in Combination: 12.5 µg/mL
[23]; TP2-6 combined with meropenem
  MIC in Combination: 12.5 µg/mL
[24]; [31]
  MIC: 400 µg/mL
[24]; TP2-5 combined with meropenem
  MIC in Combination: 200 µg/mL
[24]; TP2-6 combined with meropenem
  MIC in Combination: 200 µg/mL
[25]; [31]
  MIC: 100 µg/mL
[25]; TP2-5 combined with meropenem
  MIC in Combination: 100 µg/mL
[25]; TP2-6 combined with meropenem
  MIC in Combination: 100 µg/mL
[26]; [31]
  MIC: 12.5 µg/mL
[26]; TP2-5 combined with meropenem
  MIC in Combination: 12.5 µg/mL
[26]; TP2-6 combined with meropenem
  MIC in Combination: 1.56 µg/mL
[27]; [31]
  MIC: 200 µg/mL
[27]; TP2-5 combined with meropenem
  MIC in Combination: 100 µg/mL
[27]; TP2-6 combined with meropenem
  MIC in Combination: 100 µg/mL
[28]; [31]
  MIC: 100 µg/mL
[28]; TP2-5 combined with meropenem
  MIC in Combination: 50 µg/mL
[28]; TP2-6 combined with meropenem
  MIC in Combination: 25 µg/mL

## GECIWDAIFHGAKHFLHRLVNP [TP2, tilapia piscidin 2]
[29]
  antimicrobial activity: without antimicrobial activity
  net positive charge: negligible or no net positive charge
